Data taken from article PMC7226839, “Modulation of STAT3 Signaling, Cell Redox Defenses and Cell Cycle Checkpoints by β-Caryophyllene in Cholangiocarcinoma Cells: Possible Mechanisms Accounting for Doxorubicin Chemosensitization and Chemoprevention” (Cells, 2020).
Counter-ions that a name gives are not always drawn. Like-named read-outs stand apart in the source and are kept apart here.

Legend:
[1] = system: Mz-ChA-1 cholangiocarcinoma cells; assay: cells; details: Homo sapiens, combination with 50 µM β-caryophyllene
Experimental: (§4) To perform the assay, the cells were grown for 24 h into 96-well microplates (2 × 10^4 cells/well), then treated with the test substances and incubated according to the applied protocol schedule [26]. At the end of incubation, the cytotoxicity was measured by the 3-[4,5-dimethylthiazol-2-yl] -2,5-diphenyl tetrazolium bromide (MTT) assay, using an Epoch Microplate Spectrophotometer (BioTek, AHSI, Milan Italy). At least three biologic replicates, in which each concentration was tested in triplicate, were made. Comparing the number of viable cells in each treatment respect to the vehicle control allows to measure a cell viability reduction. The effect of the treatment was considered as cytotoxic when at least a 30% lowering of cell viability occurred [59].
(§5) In the single long-term schedule, confluence cells were exposed to the test substances for 24 h and 72 h (Figure S1), then the cytotoxicity was measured by the MTT assay. Under the metronomic treatment, the cells were subjected to a short and/or repeated exposure of 2 h to the test substances (Figure S2), as follow: 1) single treatment, the cells were treated for 2 h, then washed and incubated for 72 h; 2) two-repeated treatments, the cells were exposed to the test substances for 2 h, then washed and incubated for functional recovery for further 2 h. After recovering, the cells were further treated with the test substances for 2 h, washed and incubated for 72 h. Finally, the cytotoxicity was measured by the MTT assay as described above.
The type of interaction between β-caryophyllene and doxorubicin, i.e., synergy, additivity or antagonism, was evaluated by measuring three parameters: reversal ratio value (RR), combination index (CI) and isobolographic analysis (IB) [24].
(§6) RR represents the cytotoxicity enhancement ratio and allows to quantify the efficacy increase of a drug (A) in the presence of a chemosensitizing agent (B), by relating the IC50 of A alone (CA) and that of IC50 of its combination with B (CA+B).
CI gives a quantitative measure of the interaction and is calculated as follow: (CA,X/ICX,A) + (CB, X/ICX,B), in which CA,X and CB,X are the concentrations of A and B at the IC50 value of their combination, whereas ICX,A and ICX,B are the IC50 values of the substances alone. When the CI value was equal to, less or higher than 1, the interaction between test substances was evaluated as additivity, synergism and antagonism, respectively.
The isobolographic analysis, displaying the extent of the interaction between drug A and the potential chemosensitizer B, was obtained by a two-coordinate plot, wherein the IC50 concentrations of A and B were plotted on the x and y axes, corresponding to (CA, 0) and (C0, B), respectively. The substance concentrations used in the combination (CA+B) were placed in the same plot. A nonlinear regression analysis was carried out by GraphPad Prism™ 6.00 software, in order to connect the IC50 value of each drug alone and that of the combination, whereas the line connecting CA and CB represented an additive interaction. A synergism between A and B occurred when CA+B were located below the line, while the interaction was antagonistic when the values were above the line [60].

[2] = system: γH2AX in Mz-ChA-1 cholangiocarcinoma cells; assay: Western blotting of phosphorylated H2AX (Ser139); format: cell-based, human; details: for increase in γH2AX levels compared the control: doxorubicin 20 µM
Experimental: (§7) To perform the analysis, the cells were seeded in 6-well plates, then subjected to the treatment with β-caryophyllene (50 µM) and doxorubicin (20 µM), alone and in combination, for the required time exposure, then harvested by centrifugation and washed in PBS. A lysis buffer, containing SDS (2% w/w), Tris-hydrochloride (20 mM; pH 7.4), urea (2 M), glycerol (10% w/w), sodium orthovanadate (2 mM), DTT (10 mM) and a protease inhibitors cocktail (1:100 dilution) was used to achieve the cell protein separation. The separated proteins were resolved by SDS-PAGE 10% TGX FastCast™ Acrylamide gel (BioRad, Segrate, Italy) and transferred on PVDF membranes (BioRad, Segrate, Italy) by using a Trans-Blot® Turbo™ Transfer System (BioRad, Segrate, Italy). The membranes were blocked with a 0.2% w/v I-block (Thermo Fisher Scientific, Rodano, Italy) in Tris-buffered saline containing 0.05% Tween-20 (TBS-T), then stained with the desired primary antibodies. […] After rinsing three times in TBS-T to remove unbound primary antibody, the membranes were incubated for an additional hour with the appropriate horseradish peroxidase- or alkaline phosphatase-conjugated secondary antibody (Jackson ImmunoResearch, Pero, Italy). […] Each experiment was performed at least in three replicates.

[3] = system: H69 noncancerous cholangiocytes; assay: MTT cytotoxicity and combination assay; format: cell-based; details: for IC50: combination with 50 µM β-caryophyllene; for cytotoxicity: H69, 100 μM
Experimental: as §4, §5, §6

[4] = system: H69 noncancerous cholangiocytes; assay: Annexin-V-FITC fluorescence microscopy, semiquantitative; format: cell-based; details: H69, 24 h, β-caryophyllene 50 µM, doxorubicin 20 µM
Experimental: (§1) Apoptosis extent was evaluated by Annexin-V staining (Annexin V Apoptosis detection kit, Santa Cruz Biotechnology, DBA, Milan, Italy), which is known to specifically binds phosphatidylserine, a […] which is normally embedded in the inner leaflet of plasma membrane and externalized during apoptosis, as a result of the membrane changes. Therefore, apoptotic cells can be directly detected through their staining with the fluorochrome-conjugated Annexin V. The analysis was performed by both fluorescence microscopy and flow cytometry in order to both visualize the event and to achieve a quick and accurate quantification of apoptotic cells.

[5] = system: ROS in H69 noncancerous cholangiocytes; assay: Intracellular ROS determination (DCFH-DA); format: cell-based; details: H69, 24 h, β-caryophyllene 50 µM, doxorubicin 20 µM
Experimental: To perform the assay, the cells, seeded in 6-well plates (1 × 10^6 cells/well), were treated with the tested substances (β-caryophyllene, 50 µM; doxorubicin, 20 µM) for the required time exposure, then the ROS levels were measured in the pellets by the 2,7-dichlorofluorescein diacetate assay (DCFH-DA), as previously reported. […] In each experiment, a vehicle control, corresponding to a basal ROS level, were included too. For all the treatments, the mean DCF fluorescence of 50,000 cells was determined by a BD Accuri^TM C6 Software version 1.0.264.21 (BD Biosciences, Milan, Italy).

[6] = system: H69 noncancerous cholangiocytes; assay: Annexin-V-Cy3/CFDA flow cytometry (apoptotic and viable cells); format: cell-based; details: for inhibition of viable cells (CF fluorescence): H69, 2 h and 24 h, maximum
Experimental: as §1
(§2) For flow cytometry analysis, the cells (1 × 10^6 cells) were grown in 6-well plates, treated with β-caryophyllene (50 µM) and doxorubicin (20 µM), alone and in combination for the required time exposure, then collected by trypsinization and resuspended in PBS in the presence of the fluorochrome Annexin-V-Cy3 (4 μg/mL in cell suspension). In order to detect viable cells, the nonfluorescent probe carboxyfluorescein diacetate (CFDA; 2 μg/mL in cell suspension), hydrolyzed in living cells by esterases to its fluorescent carboxyfluorescein metabolite (CF), was included too. For each sample, the mean fluorescence of Annexin-V-Cy3 (excitation/emission at 543/570 nm, respectively) and CF (excitation/emission at 492/514 nm, respectively) in 50,000 cells was measured using a BD Accuri^TM C6 flow cytometer, FL-2 and FL-1 channels respectively (BD Biosciences, Milan, Italy). Although standard flow cytometry apoptosis assays use Annexin V-FITC, we chosen the conjugate with Cy3 in order to avoid the overlapping in the excitation wavelength of annexin V-FITC and CF, which could interfere with the analysis. Cells undergoing apoptosis were also sorted by their typical forward- and side scatter (FSC-SSC) pattern, i.e., increased SSC and decreased FSC, respect to the viable cells. Multiparameter analysis and gating of forward and side scatter as well as fluorescence detection were performed using a BD Accuri^TM C6 Software version 1.0.264.21 (BD Biosciences, Milan, Italy).

[7] = system: Mz-ChA-1 cholangiocarcinoma cells; assay: as above; format: cell-based, human; details: for inhibition of viable cells (CF fluorescence): Mz-ChA-1, 2 h and 24 h, maximum
Experimental: as §1, §2

[8] = system: phospho(Tyr705)-STAT3 in Mz-ChA-1 cells; assay: Western blotting of phospho(Tyr705)-STAT3; format: cell-based, human; details: for increase of phospho(Tyr705)-STAT3 compared the control: β-caryophyllene 50 µM, doxorubicin 20 µM
Experimental: as §7

[9] = system: Mz-ChA-1 cholangiocarcinoma cells; assay: Cell cycle analysis (PI flow cytometry); format: cell-based, human; details: Mz-ChA-1, 24 h
Experimental: (§3) Analysis of cell cycle progression was performed by applying a one parameter flow cytometric method, in which cell cycle distribution was evaluated on the basis of DNA content. Briefly, after treatments, the harvested cells (about 1 × 10^6 cells) were fixed in ice cold 70% ethanol and stored for at least 2 h at 4 °C. Thereafter, the ethanol-suspended cells were separated by centrifugation, rinsed in PBS, then resuspended in a propidium iodide (PI) staining solution, containing 0.1% v/v Triton X-100, 10 μg/mL PI and 100 μg/mL DNase-free RNase A in PBS and stored at 4 °C in the dark for at least 30 min. For each sample, the mean fluorescence of PI (maximum excitation of PI bound to DNA at 536 nm; emission at 617 nm) in 50,000 cells was measured using a BD Accuri^TM C6 flow cytometer FL2 channel (BD Biosciences, Milan, Italy) and deconvolution of the DNA content frequency histograms, to estimate the proportions of cells in the respective phases of the cycle, was made by Modfit 4.1 software (Verity Software House, Topsham, ME, USA).

[10] = system: Mz-ChA-1 cholangiocarcinoma cells; assay: Annexin-V-FITC fluorescence microscopy, semiquantitative; format: cell-based, human; details: Mz-ChA-1, 24 h, β-caryophyllene 50 µM, doxorubicin 20 µM
Experimental: as §1

[11] = system: γH2AX in H69 noncancerous cholangiocytes; assay: Western blotting of phosphorylated H2AX (Ser139); format: cell-based; details: for increase of γH2AX with respect to control: doxorubicin 20 µM
Experimental: as §7

[12] = system: H69 noncancerous cholangiocytes; assay: Cell cycle analysis (PI flow cytometry); format: cell-based; details: H69, 24 h
Experimental: as §3

[13] = 24 h, read-out: IC50 (CL), Mz-ChA-1, 24 h exposure
[14] = 72 h, read-out: IC50 (CL), Mz-ChA-1, 72 h exposure
[15] = read-out: IC50 (CL), Mz-ChA-1, double repeated 2 h exposure + 72 h recovery
[16] = read-out: IC50 (CL), Mz-ChA-1, single 2 h exposure + 72 h recovery
[17] = H69, double repeated 2 h exposure + 72 h recovery
[18] = H69, single 2 h exposure + 72 h recovery
[19] = β-caryophyllene 50 µM, doxorubicin 20 µM

SMILES: C=C1CC/C=C(\C)CC[C@@H]2[C@@H]1CC2(C)C [β-Caryophyllene, β-caryophyllene]
- IC50 [1, 13]: 124 µM
- IC50 [1, 14]: 90 µM
- IC50 [1, 15]: 140 µM
- IC50 [1, 16]: 172 µM
- effect on γH2AX levels ([2]; Mz-ChA-1, 50 µM, 2 h and 24 h): null effects
- IC50 ([3]; 24 h, H69, 24 h exposure): 148 µM
- IC50 ([3]; 72 h, H69, 72 h exposure): 146 µM
- maximum cytotoxicity increase, long-term compared metronomic treatments (IC50) ([3]; H69): about 1.2 fold
- reduction of cell viability ([3]; H69, 50 μM): lower than 20%
- inhibition of cell viability vs. control ([3]; H69, 125 μM, 24 h and 72 h): about 40%
- effect on cell proliferation ([3]; H69, 125 μM, metronomic schedules): without affecting cell proliferation
- IC50 [3, 17]: 161 µM
- IC50 [3, 18]: 177 µM
- Annexin V H69 (semiquantitative apoptosis score) [4]: – (0%–5% = negative)
- enhancement in ROS amount compared the control [5]: 1.3 fold
- inhibition of viable cells (CF fluorescence) [6]: about 1.2 fold
- lowering of basal apoptosis (annexin-V-Cy3) ([6]; H69, both time exposures, β-caryophyllene 50 µM): 1.2 fold
- inhibition of viable cells (CF fluorescence) [7]: about 1.2 fold
- effect on basal apoptosis (annexin-V-Cy3) ([7]; Mz-ChA-1, β-caryophyllene 50 µM): did not affected the basal apoptosis
- increase of phospho(Tyr705)-STAT3 compared the control ([8]; Mz-ChA-1, 2 h): ≥ 3 fold
- increase of phospho(Tyr705)-STAT3 compared the control ([8]; Mz-ChA-1, 24 h): ≥ 3 fold
- increase in G0/G1 phase vs. control ([9]; β-caryophyllene 50 µM): about 1.2 fold
- increase in G2/M phase vs. control [9, 19]: about 1.5 fold
- Annexin V Mz-ChA-1 (semiquantitative apoptosis score) [10]: +/- (6%–10% = +/−)
- effect on γH2AX levels ([11]; H69, 50 µM, 2 h and 24 h): null effects
- reduction of G2/M phase vs. control ([12]; β-caryophyllene 50 µM): about 1.4 fold

SMILES: COc1cccc2c1C(=O)c1c(O)c3c(c(O)c1C2=O)C[C@@](O)(C(=O)CO)C[C@@H]3O[C@H]1C[C@H](N)[C@H](O)[C@H](C)O1 [Doxorubicin, doxorubicin hydrochloride]
- IC50 [1, 13]: 27.8 µM
- IC50 [1, 14]: 3.8 µM
- IC50 [1, 15]: 11.6 µM
- IC50 [1, 16]: 19.8 µM
- increase in γH2AX levels compared the control ([2]; Mz-ChA-1, 2 h): about 60 fold
- increase in γH2AX levels compared the control ([2]; Mz-ChA-1, 24 h): ~140 fold
- IC50 ([3]; 24 h, H69, 24 h exposure): 13.6 µM
- IC50 ([3]; 72 h, H69, 72 h exposure): 4 µM
- IC50 reduction, double short exposure compared the single one ([3]; H69): 1.5 fold
- cytotoxicity lowering, double repeated metronomic vs 24 h exposure (IC50) ([3]; H69): ~3 fold
- cytotoxicity lowering, single metronomic vs 24 h exposure (IC50) ([3]; H69): ~7 fold
- fold more toxic after 72 h with respect to 24 h (IC50 comparison) ([3]; H69): about 3 fold
- inhibition of cell viability ([3]; H69, 10 µM, 24 h): about 40%
- fold more toxic than the 24 h protocol ([3]; H69, 10 µM, 72 h): 2 fold
- maximal cytotoxicity ([3]; H69, 10 µM, 72 h): about 80%
- cytotoxicity ([3]; double repeated 2 h exposure): ~70%
- cytotoxicity ([3]; single 2 h exposure): about 60%
- maximum inhibition of cell viability ([3]; H69, 200 µM, 24 h): about 80%
- IC50 [3, 17]: 54.4 µM
- fold safer than the long-term exposures of 72 h ([3]; H69, metronomic schedules): about 100 fold
- nontoxic up to (concentration) ([3]; H69, metronomic schedules): up to 20 μM
- IC50 [3, 18]: 81.8 µM
- Annexin V H69 (semiquantitative apoptosis score) [4]: + (11%–30% = +)
- enhancement in ROS amount compared the control [5]: at least 3 fold
- inhibition of viable cells (CF fluorescence) [6]: ≤ 1.4 fold
- increase of apoptotic rate ([6]; H69, 24 h, doxorubicin 20 µM): ~1.5 fold
- inhibition of viable cells (CF fluorescence) [7]: up to 1.5 fold
- increase of apoptotic rate vs the basal rate in the control ([7]; Mz-ChA-1, 24 h): ~3 fold
- increase of phospho(Tyr705)-STAT3 compared the control ([8]; Mz-ChA-1, 2 h): ~100 fold
- increase of phospho(Tyr705)-STAT3 compared the control ([8]; Mz-ChA-1, 24 h): ~20 fold
- higher phospho(Tyr705)-STAT3 expression in Mz-ChA-1 with respect H69 cholangiocytes ([8]; doxorubicin-promoted, Mz-ChA-1 vs H69): ~10 fold
- increase of cell accumulation in S-phase compared the control ([9]; doxorubicin 20 µM): ~1.6 fold
- reduction of G0/G1 phase ([9]; doxorubicin 20 µM): at least 4 fold
- increase in G2/M phase vs. control [9, 19]: about 1.4 fold
- Annexin V Mz-ChA-1 (semiquantitative apoptosis score) [10]: + (11%–30% = +)
- increase of γH2AX with respect to control ([11]; H69, 2 h): ~40 fold
- increase of γH2AX with respect to control ([11]; H69, 24 h): ~200 fold
- increase of cell accumulation in S-phase compared the control ([12]; doxorubicin 20 µM): ~1.8 fold
- reduction of G0/G1 phase ([12]; doxorubicin 20 µM): ≥ 30 fold
